Tests used:
melanoma cells = assay: Cell proliferation, BrdU incorporation into DNA; assay type: cell-based, mouse; conditions: 2% methyl sulfone
Experimental: Cells were plated onto sterile 12 mm coverslips in 35 mm tissue culture plates and incubated at 37° C., 5% CO2. After 24 hours, 2% methyl sulfone in medium or medium alone was added the plates and incubated at 37° C., 5% CO2 for 48 and 72 hrs. BrdU (Molecular Probes, Eugene, Oreg., USA; diluted ⅓ in RPMI medium) was added to each plate for 60 minutes at 37° C., 5% CO2. Coverslips were transferred to porcelain holders, washed with PBS, fixed in methanol/acetone (1:1), washed with PBS, and incubated in 5% BSA/PBS for 30 minutes at room temperature. To denature DNA, coverslips were placed in 0.1N HCL/1% Triton X-100 for 10 minutes at room temperature. After washing in PBS, cells were incubated with Alexa Fluor 488 anti-BrdU antibody (Molecular Probes, Eugene, Oreg.; diluted 1/20 in 5% BSA/PBS) for 60 minutes at room temperature. Cells were washed in PBS and incubated with Hoechst (diluted 1/1000 in PBS) in the dark at room temperature. After washing in PBS, cells were dipped in dH2O and drained onto Kim Wipes. SlowFade mounting medium (Molecular Probes, Eugene, Oreg.) was added to a glass slide and coverslips were placed face down onto slides and sealed with clear nail polish. […]

[1] = 20° C.; cited from earlier work
[2] = tested on: microtubules in melanoma cells; assay: Immunofluorescence of microtubules, incl. vinblastine stability test; assay type: cell-based, mouse
Experimental: Cells were plated in 6-100 mm tissue culture plates, each containing 1 polylysine-coated 10-well slide, or plated onto polylysine-coated coverslips. Once cells were approximately 50% confluent, 2% methyl sulfone was added to cells for 10, 30, 60, 90, and 120 minutes. At each time point cells were placed in microtubule stabilizing buffer ( ) for 10 minutes followed by incubation in −20° C. methanol for 5 minutes. Cells were washed twice in 0.1% Triton X-100 in PBS at room temperature, then incubated with mouse monoclonal anti-alpha-tubulin antibody (Santa Cruz Biotech, Calif.; diluted 1/200 in 1% BSA/PBS) for 1.5 hours. Cells were washed 5 times in 0.1% Triton X-100/PBS, 3 minutes each. Cells were incubated with secondary antibody (Alexa Fluor 568 rabbit anti-mouse antibody; diluted 1/100 in 1%/PBS) for 30 minutes in the dark. Cells were washed five times in 0.1% Triton X-100/PBS, three minutes each. Cells were washed two times in PBS at 2 minute intervals and incubated with DAPI (1 μg/ml in PBS) for 5 minutes at room temperature and in the dark. Cells were washed in PBS for one minute. SlowFade was added to glass slides, coverslips were placed cell side down and sealed with nail polish. Microtubules were viewed at the Center for Cell Analysis and Modeling, University of Connecticut Health Center, Farmington, Conn., with an Axioplan CCD Microscope equipped with a 40×1.3 NA FL objective lens and Photometrics PXL-EEV37 high speed digital cooled CCD camera via Metamorph image acquisition and analysis software (Universal Imaging Corp., Downington, Pa.).
One assay to test stability of microtubules is to give cells increasing concentrations of a microtubule-disassembly drug and use immunofluorescence microscopy to assess microtubule lengths (Caron et al). A higher concentration of drug will be required to disassemble the more stabilized microtubules. We used different concentrations of the anti-microtubule drug, vinblastine, to assess microtubule stability in control cells and cells incubated with 2% methyl sulfone.

[3] = tested on: CEM cells, leukemic T-cell lymphocytes; assay: Apoptosis of leukemic lymphocytes, FITC-annexinV/propidium iodide microscopy; assay type: cell-based, human; conditions: for apoptotic leukemic lymphocytes: 20 hours
Experimental: Cloudman S-91 mouse melanoma cells (sub-clone M-3, CCL 53.1; American Type Culture Collection, Rockville, Md.) were grown in RMPI medium supplemented with 10% fetal bovine serum (Invitrogen, Inc) and 5% penicillin-streptomycin (Invitrogen, Inc). Mouse breast cancer cells (66Cl-1; American Type Culture Collection, Rockville, Md.) that are estrogen-receptor negative were grown in DMEM medium supplemented with 10% fetal bovine serum (Invitrogen, Inc) and 5% penicillin/streptomycin (Invitrogen, Inc). Human T-cell leukemic lymphocytes (CEM; American Type Culture Collection, Rockville, Md.) were grown in MEM medium supplemented with 7% fetal calf serum. Cultures were passaged twice a week.
CEM cells, leukemic T-cell lymphocytes obtained from a child with acute lymphocytic leukemia, were maintained in Petri dishes in MEM (minimal essential medium) with 7% fetal calf serum in a 5% CO2 incubator at 37° C. For experiments, methyl sulfone was added to the medium at concentrations from 0-6.0%. In control cells, no methyl sulfone was added. Cells (2×10^6 per ml) were incubated for 20 hrs in the presence or absence of methyl sulfone, and then assayed for apoptosis using FITC-annexinV/propidium iodide microscopy. Methyl sulfone was also compared to the anti-microtubule drug, vinblastine. Vinblastine (VNB) and its derivative, vincristine, are standard treatments for acute lymphocytic leukemia, as well as other cancers. We used the concentration of VNB that is found in the blood of subjects being treated with this drug (10^−7 M) (6,7).

[4] = tested on: neutrophils from healthy volunteers; assay: Apoptosis of normal neutrophils by Flow Cytometry; assay type: cell-based, human; conditions: 10% methyl sulfone, 20 hours
Experimental: Blood was drawn from healthy volunteers and white blood cells (e.g., lymphocytes, neutrophils) were enriched using Ficoll-Plaque. Cells were incubated in Petri dishes containing MEM with 7% fetal calf serum in a CO2 (5%) incubator at 37° C.; Methyl sulfone was present at concentrations of 0, 3, 6, or 10%. After 20 hours, cells were incubated with antibodies specific to T-lymphocytes (CD3 and CD4 T-cells), B-lymphocytes (B-cells) and neutrophils, and the percent of apoptotic cells was determined by Flow Cytometry. This is a technique that identifies specific cell types (e.g., CD3 T-cells, CD4 T-cells, B-cells, neutrophils) within a mixed population of blood cells, and then determines whether the cells are alive or apoptotic.
After 20 hours, cells were incubated with fluorescent antibodies to identify T-cells, B-cells and neutrophils, and then processed by Flow Cytometry (FIG. 15).

## methyl sulfone
Melanoma cells; 48 hours (control 14%)
  cells synthesizing DNA (BrdU incorporation): 0.03%
Melanoma cells; 72 hours (control 21%)
  cells synthesizing DNA (BrdU incorporation): 0%
[1]
  approximate water solubility: ~150 mg/mL
[2]; 2% methyl sulfone
  time to microtubule disassembly after adding drug: ≤ 10 min
[2]; 2% methyl sulfone plus 10^−7 M vinblastine
  microtubules in the presence of vinblastine (stability): clearly visible
[2]; 2% methyl sulfone, over the next two hours
  pattern of microtubule reassembly: re-appeared in an orderly pattern
[3]; 4% methyl sulfone
  apoptotic leukemic lymphocytes: 74%
[3]; 6% methyl sulfone
  apoptotic leukemic lymphocytes: 88%
[3]; comparison with 10^−7 M vinblastine
  effectiveness against leukemic lymphocytes compared with vinblastine: more effective than vinblastine
[4]
  effect on neutrophils: unharmed

Reference: patent US10363229B2, “Methods and compositions for the treatment of cancer” (priority 2009, dated 2019)
